Measurements taken from PubChem BioAssay (NCI).
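How tested: cells in 96-well plates exposed to compound for 48 hours at five concentrations. GI50 = concentration required for 50% inhibition of growth. TGI: concentration producing complete growth inhibition.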

Tests used:
Experiment in all cases: NCI tumour cell line growth inhibition, 48 h
A549 NSCLC = test system: A549 NSCLC
SF-539 CNS = test system: SF-539 CNS
CCRF-CEM leukemia = test system: CCRF-CEM leukemia
TK-10 renal = test system: TK-10 renal
HS 578T breast = test system: HS 578T breast
NCI-H226 lung = test system: NCI-H226 lung
UACC-257 melanoma = test system: UACC-257 melanoma
HOP-62 NSCLC = test system: HOP-62 NSCLC
SK-MEL-28 melanoma = test system: SK-MEL-28 melanoma
MDA-MB-435 = test system: MDA-MB-435
ACHN renal = test system: ACHN renal
MALME-3M melanoma = test system: MALME-3M melanoma
MOLT-4 leukemia = test system: MOLT-4 leukemia
IGROV1 ovarian = test system: IGROV1 ovarian
UO-31 renal = test system: UO-31 renal
HOP-92 NSCLC = test system: HOP-92 NSCLC
KM12 colon = test system: KM12 colon
SNB-75 CNS = test system: SNB-75 CNS
SK-MEL-2 melanoma = test system: SK-MEL-2 melanoma
OVCAR-3 ovarian = test system: OVCAR-3 ovarian
T-47D breast = test system: T-47D breast
RPMI-8226 leukemia = test system: RPMI-8226 leukemia
RXF 393 renal = test system: RXF 393 renal
SK-MEL-5 melanoma = test system: SK-MEL-5 melanoma
HT29 colon = test system: HT29 colon
OVCAR-4 ovarian = test system: OVCAR-4 ovarian
DU-145 prostate = test system: DU-145 prostate
EKVX NSCLC = test system: EKVX NSCLC
SR leukemia = test system: SR leukemia
CAKI-1 renal = test system: CAKI-1 renal
K-562 leukemia = test system: K-562 leukemia
NCI-H522 lung = test system: NCI-H522 lung
PC-3 prostate = test system: PC-3 prostate
SW-620 colon = test system: SW-620 colon
SF-268 CNS = test system: SF-268 CNS
A498 renal = test system: A498 renal
SNB-19 CNS = test system: SNB-19 CNS
HCT-15 colon = test system: HCT-15 colon
U251 CNS = test system: U251 CNS
COLO 205 colon = test system: COLO 205 colon
786-0 renal = test system: 786-0 renal
SF-295 CNS = test system: SF-295 CNS
BT-549 breast = test system: BT-549 breast
SK-OV-3 ovarian = test system: SK-OV-3 ovarian
MDA-MB-231 breast = test system: MDA-MB-231 breast
OVCAR-5 ovarian = test system: OVCAR-5 ovarian
UACC-62 melanoma = test system: UACC-62 melanoma
SN12C renal = test system: SN12C renal

## CNCc1cccc2c1OCCCCCCC(C)(O)CC(C)(C)S(=O)(=O)c1ccc(cc1)-c1cnc(N)c(n1)C(=O)N2 (centres undefined)
A549 NSCLC
  GI50: 123 nM
  TGI: 2460 nM
SF-539 CNS
  GI50: 27.4 nM
  TGI: 2010 nM
CCRF-CEM leukemia
  GI50: 13.8 nM
  TGI: > 20400 nM
TK-10 renal
  GI50: 3290 nM
  TGI: 12200 nM
HS 578T breast
  GI50: 381 nM
  TGI: 2910 nM
NCI-H226 lung
  GI50: 1130 nM
  TGI: 6210 nM
UACC-257 melanoma
  GI50: 1290 nM
  TGI: 2720 nM
HOP-62 NSCLC
  GI50: 1320 nM
  TGI: 3750 nM
SK-MEL-28 melanoma
  GI50: 1240 nM
  TGI: 2540 nM
MDA-MB-435
  GI50: 558 nM
  TGI: 2050 nM
ACHN renal
  GI50: 30.6 nM
  TGI: 2560 nM
MALME-3M melanoma
  GI50: 1210 nM
  TGI: 2580 nM
MOLT-4 leukemia
  GI50: 15.1 nM
  TGI: 2570 nM
IGROV1 ovarian
  GI50: 433 nM
  TGI: 4480 nM
UO-31 renal
  GI50: 224 nM
  TGI: 2210 nM
HOP-92 NSCLC
  GI50: 10200 nM
  TGI: 25900 nM
KM12 colon
  GI50: 1320 nM
  TGI: 2940 nM
SNB-75 CNS
  GI50: 453 nM
  TGI: 6460 nM
SK-MEL-2 melanoma
  GI50: 1850 nM
  TGI: 4250 nM
OVCAR-3 ovarian
  GI50: 277 nM
T-47D breast
  GI50: 6440 nM
  TGI: 32700 nM
RPMI-8226 leukemia
  GI50: 637 nM
  TGI: 3000 nM
RXF 393 renal
  GI50: 47.7 nM
  TGI: 1370 nM
SK-MEL-5 melanoma
  GI50: 1300 nM
  TGI: 2570 nM
HT29 colon
  GI50: 51.5 nM
  TGI: 1890 nM
OVCAR-4 ovarian
  GI50: 1130 nM
  TGI: 2720 nM
DU-145 prostate
  GI50: 603 nM
  TGI: 3240 nM
EKVX NSCLC
  GI50: 1870 nM
  TGI: 6970 nM
SR leukemia
  TGI: 1190 nM
CAKI-1 renal
  GI50: 401 nM
  TGI: 2270 nM
K-562 leukemia
  GI50: 43.6 nM
  TGI: > 100000 nM
NCI-H522 lung
  GI50: 548 nM
  TGI: 2070 nM
PC-3 prostate
  GI50: 910 nM
  TGI: 9170 nM
SW-620 colon
  GI50: 1360 nM
  TGI: 4170 nM
SF-268 CNS
  GI50: 1270 nM
  TGI: 3570 nM
A498 renal
  GI50: 3580 nM
  TGI: 16000 nM
SNB-19 CNS
  GI50: 1880 nM
  TGI: 5460 nM
HCT-15 colon
  GI50: 92 nM
  TGI: 1310 nM
U251 CNS
  GI50: 366 nM
  TGI: 1940 nM
COLO 205 colon
  GI50: 66.4 nM
  TGI: 1520 nM
786-0 renal
  GI50: 27.9 nM
  TGI: 2100 nM
SF-295 CNS
  GI50: 1410 nM
  TGI: 2840 nM
BT-549 breast
  GI50: 762 nM
  TGI: 8990 nM
SK-OV-3 ovarian
  GI50: 1850 nM
  TGI: 18400 nM
MDA-MB-231 breast
  GI50: 953 nM
  TGI: 3140 nM
OVCAR-5 ovarian
  GI50: 2240 nM
  TGI: 10300 nM
UACC-62 melanoma
  GI50: 1690 nM
  TGI: 3340 nM
SN12C renal
  GI50: 1170 nM
  TGI: 12700 nM
